PubChem BioAssay (NCI)
“And” between values parts separate entries of the source, which are not always exact repeats. Equal entries are not always repeated.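 The compound was tested at five concentrations on cells cultured in 96-well plates, with a 48-hour exposure period. GI50: concentration for 50% inhibition of growth. Definition used: TGI = concentration required for complete inhibition of growth.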

Legend:
Test in all cases: inhibition of tumour cell growth, NCI panel, 48 h
M14 melanoma = test system: M14 melanoma
NCI-H522 lung = test system: NCI-H522 lung
COLO 205 colon = test system: COLO 205 colon
SK-MEL-28 melanoma = test system: SK-MEL-28 melanoma
BT-549 breast = test system: BT-549 breast
OVCAR-5 ovarian = test system: OVCAR-5 ovarian
MDA-MB-231 breast = test system: MDA-MB-231 breast
SK-OV-3 ovarian = test system: SK-OV-3 ovarian
LXFL 529 NSCLC = test system: LXFL 529 NSCLC
SNB-78 CNS = test system: SNB-78 CNS

Row | Structure (SMILES) | GI50 (M14 melanoma) | TGI (M14 melanoma) | GI50 (NCI-H522 lung) | TGI (NCI-H522 lung) | GI50 (COLO 205 colon) | TGI (COLO 205 colon) | GI50 (SK-MEL-28 melanoma) | TGI (SK-MEL-28 melanoma) | GI50 (BT-549 breast) | TGI (BT-549 breast) | GI50 (OVCAR-5 ovarian) | TGI (OVCAR-5 ovarian) | GI50 (MDA-MB-231 breast) | TGI (MDA-MB-231 breast) | GI50 (SK-OV-3 ovarian) | TGI (SK-OV-3 ovarian) | TGI (LXFL 529 NSCLC) | TGI (SNB-78 CNS)
1 | O=C(NCCOCCOCCOCCNC(=O)c1cc2c(o1)C(=O)c1ccccc1C2=O)NC12CC3CC(CC(C3)C1)C2 | 0.462 µM | 1.8 µM | 1.78 µM | 4.95 µM | 1.96 µM | 3.97 µM | 1.94 µM | 3.75 µM | 1.5 µM | 3.25 µM | 1.83 µM | 3.28 µM | 3.04 µM | 16.6 µM | 2.84 µM | 7.43 µM |  | 
2 | CC1=CP(=O)(c2ccccc2)C=C(C)C1=C(Cl)Cl (centres undefined) |  | 17.9 µM |  | 7.23 µM |  | 16.4 µM |  | 23.4 µM |  |  |  |  |  |  |  | 72.3 µM | 11.3 µM | 9.03 µM
3 | CC(=O)NNc1nc(C)c(C(=O)NNC(=O)C(=O)Nc2c([N+](=O)[O-])ccc(C)c2C)s1 |  | > 100 µM |  | > 100 µM |  | > 100 µM |  | > 100 µM |  |  |  | > 100 µM |  |  |  |  | > 100 µM | > 100 µM
4 | CC[C@H](C)[C@H](NC(=O)[C@H]1CCCCN1C)C(=O)N(C)[C@H](C[C@@H](OC(C)=O)c1cccc(C(=O)N[C@@H](Cc2ccccc2)C[C@H](C)C(=O)O)n1)C(C)C | < 0.0025 µM | < 0.0025 µM | 0.0005 µM and < 0.0025 µM | < 0.0025 µM | 0.00187 µM | 0.0143 µM |  | > 25 µM | 0.0025 µM | 0.0116 µM |  | > 25 µM | 0.00316 µM and 0.0025 µM | > 25 µM | 0.00348 µM and 0.0025 µM | > 25 µM |  | 
5 | Cn1c(=O)c(Oc2ccc(F)cc2F)cc2cnc(N[C@@H]3CCOC3)nc21 | > 25 µM | > 25 µM | > 25 µM | > 25 µM | > 25 µM | > 25 µM | > 25 µM | > 25 µM | > 25 µM | > 25 µM | > 25 µM | > 25 µM | > 25 µM | > 25 µM | > 25 µM | > 25 µM |  | 
6 | C=C1C(=O)O[C@H]2[C@H]1CC/C(COC(=O)/C=C\C(=O)NCc1ccc(Cn3c(=O)sn(CCI)c3=O)cc1)=C\CC[C@@]1(C)O[C@@H]21 | 6.25 µM | 19.7 µM | 1.48 µM | 2.93 µM | 2.06 µM | 3.69 µM | 2.23 µM | 5.04 µM | 10.7 µM | 22.6 µM | 3.56 µM | 13.3 µM | 2.52 µM | 6.68 µM | 17.4 µM | 31.2 µM |  | 
7 | N#CC1(C#N)C=CC(=C2OCC3CCCN23)C=C1 (centres undefined) |  | > 100 µM |  | > 100 µM |  | > 100 µM |  |  |  |  |  | > 100 µM |  |  |  | > 100 µM | > 100 µM | > 100 µM
8 | O=C1C=C(OCC=C(C(F)(F)F)C(F)(F)F)c2ccccc2C1=O | 1.88 µM | 3.87 µM | 1.41 µM | 2.92 µM | 2.11 µM | 4.73 µM | 1.87 µM | 3.61 µM | 2.49 µM | 6.64 µM | 2.45 µM | 5.87 µM | 1.9 µM | 4.2 µM | 3.45 µM | 12 µM |  | 
